Values of other authors, collected in EP1680106B1, “COMBINATION TREATMENT OF OBESITY INVOLVING 4,5-DIHYDRO-1H-PYRAZOLE DERIVATIVES HAVING CB1-ANTAGONISTIC ACTIVITY AND LIPASE INHIBITORS” (Solvay Pharmaceuticals GmbH, priority 2003, dated 2005).

Tests used:
[1] = atypical antipsychotics, follow-up studies
[2] = healthy male volunteers, 5 days with meals; ATL-962 50 mg to 300 mg, orlistat 120 mg tid; placebo 1.4 (+/-1.0)
[3] = test system: carragheenin-induced swelling; conditions: mice

| Compound | weight gain with long-term treatment [1] | also measured |
| --- | --- | --- |
| Cc1nc2n(c(=O)c1CCN1CCC(c3noc4cc(F)ccc34)CC1)CCCC2 [Risperidone] | modest weight changes that are not dose related | – |
| CN1CCN(C2=Nc3cc(Cl)ccc3Nc3ccccc32)CC1 [clozapine] | largest weight gains | – |
| Cc1cc2c(s1)Nc1ccccc1N=C2N1CCN(C)CC1 [olanzapine] | largest weight gains | – |
| OCCOCCN1CCN(C2=Nc3ccccc3Sc3ccccc32)CC1 [quetiapine] | smallest | – |
| CCCCCCCCCCC[C@@H](C[C@@H]1OC(=O)[C@H]1CCCCCC)OC(=O)[C@H](CC(C)C)NC=O [tetrahydrolipstatin, (2S,3S,5S)-5-((S)-2-4-methylvaleryloxy)-2-hexyl-3-hydroxy-hexadecanoic acid lactone] | – | average fat excreted [2]: 5.6 (+/-3.8) g/day |
| O=C1Cc2cc(CCN3CCN(c4nsc5ccccc45)CC3)c(Cl)cc2N1 [ziprasidone] | smallest | – |
| Ebelactone B | – | carragheenin-induced swelling [3]: reduces carragheenin-induced swelling |
